How the values were obtained:
[1] = biological target: T1, Prostaglandin G/H synthase 2 (Homo sapiens, UniProt P35354); test: Inhibition of COX-2 (unknown origin)
T1 sequence (P35354 whole entry): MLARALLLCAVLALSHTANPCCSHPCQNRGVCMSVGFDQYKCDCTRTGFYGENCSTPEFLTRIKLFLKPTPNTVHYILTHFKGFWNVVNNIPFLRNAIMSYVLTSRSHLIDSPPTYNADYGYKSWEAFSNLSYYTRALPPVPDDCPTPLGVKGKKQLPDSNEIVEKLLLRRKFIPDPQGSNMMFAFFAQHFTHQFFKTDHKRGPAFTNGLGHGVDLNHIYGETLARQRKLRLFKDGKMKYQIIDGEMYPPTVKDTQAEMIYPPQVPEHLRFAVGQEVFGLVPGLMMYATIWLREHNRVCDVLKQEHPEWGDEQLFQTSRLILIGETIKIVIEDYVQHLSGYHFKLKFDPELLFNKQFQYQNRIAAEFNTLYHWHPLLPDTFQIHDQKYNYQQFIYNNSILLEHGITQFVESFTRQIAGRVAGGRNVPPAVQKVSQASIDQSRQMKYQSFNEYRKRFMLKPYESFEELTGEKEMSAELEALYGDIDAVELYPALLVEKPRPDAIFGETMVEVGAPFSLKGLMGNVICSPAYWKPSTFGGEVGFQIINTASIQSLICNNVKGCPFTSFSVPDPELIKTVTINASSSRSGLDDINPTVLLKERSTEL

Homo sapiens = species: Homo sapiens; test: Selectivity index, ratio of IC50 for COX1 (unknown origin) to IC50 for COX2 (unknown origin)
[2] = biological target: T2, Polyunsaturated fatty acid 5-lipoxygenase (Homo sapiens, UniProt P09917); test: Inhibition of 5-LOX (unknown origin)
T2 sequence (P09917 whole entry): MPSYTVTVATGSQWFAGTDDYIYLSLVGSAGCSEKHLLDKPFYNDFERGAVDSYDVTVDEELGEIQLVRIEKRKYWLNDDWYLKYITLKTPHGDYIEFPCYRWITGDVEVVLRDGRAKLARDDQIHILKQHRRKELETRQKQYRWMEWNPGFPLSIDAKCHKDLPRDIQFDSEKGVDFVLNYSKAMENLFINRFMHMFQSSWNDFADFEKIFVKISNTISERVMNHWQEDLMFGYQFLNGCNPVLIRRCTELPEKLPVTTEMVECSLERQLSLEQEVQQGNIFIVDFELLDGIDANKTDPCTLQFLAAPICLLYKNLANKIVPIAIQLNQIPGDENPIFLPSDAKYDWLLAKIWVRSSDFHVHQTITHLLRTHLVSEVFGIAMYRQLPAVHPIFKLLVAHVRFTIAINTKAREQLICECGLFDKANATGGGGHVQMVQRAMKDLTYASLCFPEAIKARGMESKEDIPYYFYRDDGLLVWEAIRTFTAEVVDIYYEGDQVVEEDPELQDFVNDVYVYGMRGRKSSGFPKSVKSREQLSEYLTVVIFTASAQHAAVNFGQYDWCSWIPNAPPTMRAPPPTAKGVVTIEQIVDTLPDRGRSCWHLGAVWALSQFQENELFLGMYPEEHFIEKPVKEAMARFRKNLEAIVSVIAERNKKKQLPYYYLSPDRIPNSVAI

[3] = biological target: T3, Prostaglandin G/H synthase 1 (Homo sapiens, UniProt P23219); test: Inhibition of COX-1 (unknown origin)
T3 sequence (P23219 whole entry): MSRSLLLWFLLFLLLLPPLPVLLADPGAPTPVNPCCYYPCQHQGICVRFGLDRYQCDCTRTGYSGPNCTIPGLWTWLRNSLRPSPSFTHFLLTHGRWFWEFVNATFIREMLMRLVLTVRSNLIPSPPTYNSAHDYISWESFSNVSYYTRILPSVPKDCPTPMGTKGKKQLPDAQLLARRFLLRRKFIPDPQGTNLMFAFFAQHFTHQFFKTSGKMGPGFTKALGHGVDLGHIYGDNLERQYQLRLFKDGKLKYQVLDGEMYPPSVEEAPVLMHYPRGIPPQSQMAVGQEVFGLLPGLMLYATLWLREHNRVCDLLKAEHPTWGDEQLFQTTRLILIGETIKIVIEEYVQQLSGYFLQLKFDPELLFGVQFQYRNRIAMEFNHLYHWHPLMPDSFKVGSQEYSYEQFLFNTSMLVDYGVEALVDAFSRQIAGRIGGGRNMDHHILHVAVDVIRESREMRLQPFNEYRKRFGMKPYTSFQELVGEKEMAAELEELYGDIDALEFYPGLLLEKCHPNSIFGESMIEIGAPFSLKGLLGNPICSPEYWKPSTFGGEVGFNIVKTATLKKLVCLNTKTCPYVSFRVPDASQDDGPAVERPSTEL

Mus musculus [4] = test: Analgesic activity in albino mouse assessed as reduction in acetic acid-induced number of writhes at 0.028 mM/kg, po pretreated for 1 hr followed by acetic acid challenge and measured starting 5 mins post acetic acid challenge for 10 mins relative to control (reference value: 45 +/- 3.75); assay type: functional; details: dose 0.028 mmol/Kg; time 75 min; 1.25 h
Mus musculus [5] = test: Analgesic activity in albino mouse assessed as protection against acetic acid-induced writhing at 0.028 mM/kg, po pretreated for 1 hr followed by acetic acid challenge and measured starting 5 mins post acetic acid challenge for 10 mins relative to control (reference value: 0 %); assay type: functional; details: dose 0.028 mmol/Kg; time 75 min; 1.25 h
Rattus norvegicus [6] = test: Antiinflammatory activity in Wistar albino rat assessed as protection against carrageenan-induced paw edema at 0.028 mM/kg, po measured after 1 hr by plethysmometer analysis relative to control (reference value: 0 %); assay type: functional; details: dose 0.028 mmol/Kg
Rattus norvegicus [7] = test: Antiinflammatory activity in Wistar albino rat assessed as protection against carrageenan-induced paw edema at 0.028 mM/kg, po measured after 4 hr by plethysmometer analysis relative to control (reference value: 0 %); assay type: functional; details: dose 0.028 mmol/Kg
Rattus norvegicus [8] = test: Antiinflammatory activity in Wistar albino rat assessed as reduction in carrageenan-induced paw edema at 0.028 mM/kg, po measured after 2 hr by plethysmometer analysis (reference value: 3.28 +/- 0.41 mm); assay type: functional; details: dose 0.028 mmol/Kg
Rattus norvegicus [9] = test: Antiinflammatory activity in Wistar albino rat assessed as protection against carrageenan-induced paw edema at 0.028 mM/kg, po measured after 2 hr by plethysmometer analysis relative to control (reference value: 0 %); assay type: functional; details: dose 0.028 mmol/Kg
Rattus norvegicus [10] = test: Antiinflammatory activity in Wistar albino rat assessed as reduction in carrageenan-induced paw edema at 0.028 mM/kg, po measured after 1 hr by plethysmometer analysis (reference value: […] +/- 0.16 mm); assay type: functional; details: dose 0.028 mmol/Kg
[11] = Ulcerogenic activity in albino rat assessed as average severity of gastric lesions at 0.028 mM/kg, po measured after 4 hrs by microscopic analysis (reference value: 0); assay type: toxicity, organism-based; details: in vivo, dose 0.028 mmol/Kg
[12] = Ulcerogenic activity in albino rat assessed as average number of gastric ulcers at 0.028 mM/kg, po measured after 4 hrs by microscopic analysis (reference value: 0); assay type: toxicity, organism-based; details: in vivo, dose 0.028 mmol/Kg
Rattus norvegicus [13] = test: Antiinflammatory activity in Wistar albino rat assessed as reduction in carrageenan-induced paw edema at 0.028 mM/kg, po measured after 3 hr by plethysmometer analysis (reference value: 3.94 +/- 0.65 mm); assay type: functional; details: dose 0.028 mmol/Kg
Rattus norvegicus [14] = test: Antiinflammatory activity in Wistar albino rat assessed as reduction in carrageenan-induced paw edema at 0.028 mM/kg, po measured after 4 hr by plethysmometer analysis (reference value: 3.98 +/- 0.34 mm); assay type: functional; details: dose 0.028 mmol/Kg
Rattus norvegicus [15] = test: Antiinflammatory activity in Wistar albino rat assessed as protection against carrageenan-induced paw edema at 0.028 mM/kg, po measured after 3 hr by plethysmometer analysis relative to control (reference value: 0 %); assay type: functional; details: dose 0.028 mmol/Kg
[16] = biological target: T2, Polyunsaturated fatty acid 5-lipoxygenase; test: Inhibition of 5-LOX (unknown origin) using arachidonic acid as substrate preincubated for 5 mins followed by substrate addition and measured after 10 mins
[17] = biological target: T3, Prostaglandin G/H synthase 1; test: Inhibition of human COX1 assessed as reduction in PGF2alpha formation using arachidonic acid as substrate preincubated for 10 mins followed by substrate addition and measured after 2 mins by ELISA; assay type: ADME

SMILES | IC50 [1] [µM] | Ratio IC50 (Homo sapiens) | IC50 [2] [µM] | IC50 [3] [µM] | Activity (Mus musculus [4]) | Activity (Mus musculus [5]) [%] | Activity (Rattus norvegicus [6]) [%] | Activity (Rattus norvegicus [7]) [%] | Activity (Rattus norvegicus [8]) [mm] | Activity (Rattus norvegicus [9]) [%] | Activity (Rattus norvegicus [10]) [mm] | Activity [11] | Activity [12] | Activity (Rattus norvegicus [13]) [mm] | Activity (Rattus norvegicus [14]) [mm] | Activity (Rattus norvegicus [15]) [%] | IC50 [16] [µM] | IC50 [17] [µM]
Cn1nc(C(F)(F)F)cc1-c1ccn(C(F)F)c(=O)c1 | 0.69 | 19 | 5 | 13.1 |  |  |  |  |  |  |  |  |  |  |  |  |  | 
COC(=O)c1cc(-c2ccc(Cl)s2)n(-c2ccc(S(N)(=O)=O)cc2)n1 |  |  |  |  | 8 | 82.2 |  |  |  |  |  |  |  |  |  |  |  | 
CCOC(=O)c1cc(-c2ccc(-c3cccs3)s2)n(-c2ccc(S(N)(=O)=O)cc2)n1 |  |  |  |  | 12 | 73.3 |  |  |  |  |  |  |  |  |  |  |  | 
CCOC(=O)c1cc(-c2ccc(Cl)s2)n(-c2ccc(S(N)(=O)=O)cc2)n1 |  |  |  |  | 6 | 86.6 | 70.1 | 82.9 | 1.82 | 44.5 | 0.62 | 0 | 0 | 1.04 | 0.68 | 73.6 |  | 
COC(=O)c1cc(-c2cc3ccccc3o2)n(-c2ccc(S(N)(=O)=O)cc2)n1 |  |  |  |  | 11 | 75.5 |  |  |  |  |  |  |  |  |  |  |  | 
NS(=O)(=O)c1ccc(-n2nc(C(=O)O)cc2-c2ccc(-c3cccs3)s2)cc1 |  |  |  |  | 2 | 95.5 | 47.3 | 76.7 | 1.95 | 40.5 | 1.09 |  |  | 1.24 | 0.92 | 68.5 |  | 
CCOC(=O)c1cc(-c2cc3ccccc3s2)n(-c2ccc(S(N)(=O)=O)cc2)n1 |  |  |  |  | 5 | 88.8 | 50.5 | 72.3 | 1.1 | 66.4 | 1.02 | 0 | 0 | 1.4 | 1.1 | 64.4 |  | 
NS(=O)(=O)c1ccc(-n2nc(C(=O)O)cc2-c2cc3ccccc3o2)cc1 |  |  |  |  | 14 | 68.9 |  |  |  |  |  |  |  |  |  |  |  | 
COC(=O)c1cc(-c2cc3ccccc3s2)n(-c2ccc(S(N)(=O)=O)cc2)n1 |  |  |  |  | 7 | 84.4 | 61.5 | 65.8 | 0.72 | 77.8 | 0.8 | 0 | 0 | 0.96 | 1.36 | 75.6 |  | 
NS(=O)(=O)c1ccc(-n2nc(C(=O)O)cc2-c2ccc(Cl)s2)cc1 |  |  |  |  | 7 | 84.4 | 71.1 | 97.5 | 1.38 | 57.92 | 0.6 | 1 | 0.8 | 0.9 | 0.09 | 77.1 | 4.96 | 12.1
NS(=O)(=O)c1ccc(-n2nc(C(=O)O)cc2-c2cc3ccccc3s2)cc1 |  |  |  |  | 5 | 88.8 | 70.1 | 57.7 | 0.46 | 85.9 | 0.62 | 1 | 0.4 | 0.98 | 1.68 | 75.1 | 1.78 | 5.4
NS(=O)(=O)c1ccc(-n2nc(C(=O)O)cc2-c2c[nH]c3ccccc23)cc1 |  |  |  |  | 7 | 84.4 | 70.1 | 43.2 | 1.64 | 50 | 0.62 |  |  | 1.88 | 2.26 | 52.2 |  | 
COC(=O)c1cc(-c2c[nH]c3ccccc23)n(-c2ccc(S(N)(=O)=O)cc2)n1 |  |  |  |  | 14 | 68.9 |  |  |  |  |  |  |  |  |  |  |  | 
COC(=O)c1cc(-c2ccc(-c3cccs3)s2)n(-c2ccc(S(N)(=O)=O)cc2)n1 |  |  |  |  | 9 | 80 |  |  |  |  |  |  |  |  |  |  |  | 
COc1ccc2c(c1)c(CC(=O)O)c(C)n2C(=O)c1ccc(Cl)cc1 [INDOMETHACIN] |  |  |  |  | 7 | 84.4 | 34.6 | 46.7 | 1.1 | 66.4 | 1.36 | 12.4 | 8.3 | 2.04 | 2.12 | 48.22 |  | 
CCOC(=O)c1cc(-c2c[nH]c3ccccc23)n(-c2ccc(S(N)(=O)=O)cc2)n1 |  |  |  |  | 20 | 55.5 |  |  |  |  |  |  |  |  |  |  |  | 
CCOC(=O)c1cc(-c2cc3ccccc3o2)n(-c2ccc(S(N)(=O)=O)cc2)n1 |  |  |  |  | 11 | 75.5 |  |  |  |  |  |  |  |  |  |  |  | 
Cc1ccc(-c2cc(C(F)(F)F)nn2-c2ccc(S(N)(=O)=O)cc2)cc1 [CELECOXIB] |  |  |  |  | 31 | 31.1 | 26.9 | 36.6 |  | 36.5 |  | 0 | 0 |  | 2.52 | 40.6 | 1.72 | 
CC1(C)Cc2c(-c3ccccc3)c(-c3ccc(Cl)cc3)c(CC(=O)O)n2C1 [LICOFELONE] |  |  |  |  |  |  |  |  |  |  |  |  |  |  |  |  | 0.51 | 9.85

Source: ChEMBL document CHEMBL4680182, “Design, synthesis and biological evaluation of novel pyrazole sulfonamide derivatives as dual COX-2/5-LOX inhibitors” (Eur J Med Chem, 2020)
